Results from patent publication US5916586A, “Personal cleansing system comprising polymeric diamond-mesh bath sponge and liquid cleanser with deodorant composition” (priority 1996, dated 1999).

Legend:
[1] = Morpholine test: depression of partial vapor pressure of morpholine beyond Raoult's Law (headspace GC); settings: morpholine 0.25 g + material 1 g, 37° C., 30 minutes equilibrium, headspace gas chromatography
[2] = biological target: T1, lipoxidase (ECI.13.1.13) (Glycine max, UniProt P08170); assay: Lipoxidase test: inhibition of oxidation of linoleic acid by lipoxidase; assay type: biochemical; settings: test substrate made with 0.5% by weight solution of material in ethanol, borate buffer pH 9.0, increase in OD at 234 nm
T1 sequence (P08170 1-839): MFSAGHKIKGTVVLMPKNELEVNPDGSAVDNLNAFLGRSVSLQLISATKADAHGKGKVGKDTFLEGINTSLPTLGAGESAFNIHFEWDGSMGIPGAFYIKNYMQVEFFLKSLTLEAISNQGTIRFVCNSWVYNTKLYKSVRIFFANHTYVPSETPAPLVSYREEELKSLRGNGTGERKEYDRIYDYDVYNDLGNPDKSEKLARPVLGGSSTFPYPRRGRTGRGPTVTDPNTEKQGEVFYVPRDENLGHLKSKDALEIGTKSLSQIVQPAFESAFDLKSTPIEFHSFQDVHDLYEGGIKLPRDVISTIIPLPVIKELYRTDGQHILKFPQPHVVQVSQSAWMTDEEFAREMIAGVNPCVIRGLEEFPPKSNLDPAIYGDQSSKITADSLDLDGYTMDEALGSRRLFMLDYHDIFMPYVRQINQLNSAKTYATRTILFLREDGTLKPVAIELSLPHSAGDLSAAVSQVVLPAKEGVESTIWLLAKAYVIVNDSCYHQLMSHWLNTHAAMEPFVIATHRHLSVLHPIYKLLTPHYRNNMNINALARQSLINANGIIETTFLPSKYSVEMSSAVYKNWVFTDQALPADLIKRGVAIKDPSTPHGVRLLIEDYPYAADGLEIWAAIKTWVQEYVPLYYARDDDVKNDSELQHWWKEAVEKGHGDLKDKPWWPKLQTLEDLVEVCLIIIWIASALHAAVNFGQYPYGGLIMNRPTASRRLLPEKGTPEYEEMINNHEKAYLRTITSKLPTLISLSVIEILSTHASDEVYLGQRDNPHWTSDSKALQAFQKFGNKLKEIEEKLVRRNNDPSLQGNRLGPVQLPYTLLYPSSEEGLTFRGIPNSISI

- RVR (Raoult variance ratio) [1]: 1.21
- LIC (lipoxidase-inhibiting capacity, % inhibition) [2]: 100%
Compound: COC(=O)c1c(C)cc(O)c(C)c1O [LRG 201]
